Data published in publication PMC4063337, “Structure–Activity Relationships of Quinoxaline-Based 5-HT3A and 5-HT3AB Receptor-Selective Ligands” (Chemmedchem, 2013).

How the values were obtained:
[1] = target: T1, 5-HT3A receptor (Homo sapiens, UniProt P46098); experiment: [3H]granisetron competition binding, HEK293 membranes; settings: for Ki: read-out: pKi (A) (converted); for pKi (A): 0.7 nM [3H]granisetron, 10 mM HEPES pH 7.4, 4 °C, at least 24 h
T1 construct: gene HTR3A; homomeric (pentameric) receptor expressed recombinantly in HEK293 cells; cell membranes
T1 sequence (P46098 24-478): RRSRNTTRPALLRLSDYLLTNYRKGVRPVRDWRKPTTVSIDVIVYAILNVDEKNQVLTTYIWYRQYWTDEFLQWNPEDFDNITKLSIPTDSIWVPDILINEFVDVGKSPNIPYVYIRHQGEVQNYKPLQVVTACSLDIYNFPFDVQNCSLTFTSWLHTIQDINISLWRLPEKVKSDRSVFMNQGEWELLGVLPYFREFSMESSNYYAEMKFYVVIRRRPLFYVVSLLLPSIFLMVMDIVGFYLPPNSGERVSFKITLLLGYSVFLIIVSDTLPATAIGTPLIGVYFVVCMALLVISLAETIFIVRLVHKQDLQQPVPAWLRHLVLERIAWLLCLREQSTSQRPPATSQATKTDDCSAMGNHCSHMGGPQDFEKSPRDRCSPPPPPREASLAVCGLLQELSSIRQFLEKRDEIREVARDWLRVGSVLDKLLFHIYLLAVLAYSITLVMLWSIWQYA
Source text: [3H]granisetron competition binding, HEK293 membranes on 5-HT3A receptor

[2] = target: T2, 5-HT3AB receptor (Homo sapiens, UniProt O95264+P46098); experiment: as above; settings: for Ki: read-out: pKi (AB) (converted)
T2 construct: gene HTR3A; heteromeric (pentameric) receptor expressed recombinantly in HEK293 cells; cell membranes; sites at A+A- and possibly A+B- interfaces; with 5-hydroxytryptamine receptor 3B
T2 sequence (P46098 24-478): T1 sequence (P46098 24-478)
T2 sequence (O95264 22-441): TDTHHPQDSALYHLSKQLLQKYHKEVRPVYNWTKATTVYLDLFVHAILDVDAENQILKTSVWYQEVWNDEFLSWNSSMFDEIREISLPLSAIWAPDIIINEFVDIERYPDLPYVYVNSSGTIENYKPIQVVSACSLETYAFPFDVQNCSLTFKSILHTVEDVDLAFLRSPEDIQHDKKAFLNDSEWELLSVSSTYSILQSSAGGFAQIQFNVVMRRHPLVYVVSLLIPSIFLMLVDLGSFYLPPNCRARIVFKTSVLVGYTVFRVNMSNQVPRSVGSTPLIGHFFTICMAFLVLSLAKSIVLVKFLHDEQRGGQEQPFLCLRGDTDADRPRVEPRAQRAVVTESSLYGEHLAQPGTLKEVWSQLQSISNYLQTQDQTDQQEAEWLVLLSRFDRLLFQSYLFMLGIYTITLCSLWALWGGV
Source text: [3H]granisetron competition binding, HEK293 membranes on 5-HT3AB receptor

Row | Structure (SMILES) | Ki [1] [nM] | Ki [2] [nM] | pKi (A) [1] | pKi (AB) ([2]; 0.7 nM [3H]granisetron, 10 mM HEPES pH 7.4, 4 °C, at least 24 h)
1 | COc1nc2ccccc2nc1N1CCN(C)CC1 [compound 28, 28] | 0.661 | 4.57 |  | 
2 | CN1CCCN(c2nc3ccccc3nc2Cl)CC1 [compound 16, 2-Chloro-3-(4-methyl-1,4-diazepan-1-yl)quinoxaline] | 0.776 | 4.57 |  | 
3 | CN1CCN(c2nc3ccccc3nc2Br)CC1 [compound 14, 2-Bromo-3-(4-methylpiperazin-1-yl)quinoxaline] | 0.49 | 1.41 |  | 
4 | CN1CCN(c2cnc3cc(Cl)c(Cl)cc3n2)CC1 [compound 7, 6,7-Dichloro-2-(4-methylpiperazin-1-yl)quinoxaline] | 3.89 | 8.51 |  | 
5 | CN1CCN(c2nc3ccccc3nc2N)CC1 [compound 10, 3-(4-Methylpiperazin-1-yl)quinoxalin-2-amine] | 2.95 | 30.9 |  | 
6 | CN1CCN(c2nc3ccccc3nc2Cl)CC1 [VUF10166, 2-chloro-3-(4-methylpiperazin-1-yl)quinoxaline] |  | 12.6 | 9.82±0.26 | 
7 | CN1CCN(c2cnc3cc(Cl)ccc3n2)CC1 [compound 33, 33] | 16.2 | 102 |  | 
8 | CN1CCN(c2nc3ccc(Cl)cc3[nH]c2=O)CC1 [compound 22, 7-chloro-3-(4-methylpiperazin-1-yl)quinoxalin-2(1H)-one] | 31.6 | 7.24 |  | 
9 | CN1CCN(c2nc3cc(Cl)c(Cl)cc3nc2Cl)CC1 [compound 11, 2,6,7-Trichloro-3-(4-methylpiperazin-1-yl)quinoxaline] | 8.13 | 33.1 |  | 
10 | CN1CCN(c2nc3ccccc3[nH]c2=O)CC1 [compound 1, 3-(4-methylpiperazin-1-yl)quinoxalin-2-ol] | 1.17 | 0.437 |  | 
11 | CN1CCN(c2cnc3ccccc3n2)CC1 [compound 24, 2-(4-methylpiperazin-1-yl)quinoxaline] |  |  | 8.21±0.26 | 9.13±0.30
12 | CCc1nc2ccccc2nc1N1CCN(C)CC1 [compound 6, 2-Ethyl-3-(4-methylpiperazin-1-yl)quinoxaline] | 0.631 | 1.45 |  | 
13 | CNC1CCN(c2nc3ccccc3nc2Cl)C1 (stereo not shown) [compound 18, 1-(3-Chloroquinoxalin-2-yl)-N-methylpyrrolidin-3-amine] | 204 | 214 |  | 
14 | Cc1nc2ccccc2nc1N1CCN(C)CC1 [compound 26, 26] | 2.57 | 3.8 |  | 

More lines, main results first:

Row | Ki [1] [nM] | Ki [2] [nM] | Structure (SMILES) | pKi (A) [1] | pKi (AB) ([2]; 0.7 nM [3H]granisetron, 10 mM HEPES pH 7.4, 4 °C, at least 24 h)
15 | 44.7 | 38 | CN1CCN(c2nc3ccccc3nc2C(F)(F)F)CC1 [compound 27, 27] |  | 
16 | 50.1 | 72.4 | CN1CCN(c2nc3cc(Cl)c(Cl)cc3[nH]c2=O)CC1 [compound 34, 34] |  | 
17 | 8.13 | 33.1 | CN1CCCN(c2cnc3ccccc3n2)CC1 [compound 19, 2-(4-Methyl-1,4-diazepan-1-yl)quinoxaline] |  | 
18 | 32.4 | 77.6 | CNC1CCN(c2cnc3ccccc3n2)C1 (stereo not shown) [compound 21, N-Methyl-1-(quinoxalin-2-yl)pyrrolidin-3-amine] |  | 
19 | 1.12 | 14.1 | CN1CCN(c2nc3ccc(Cl)cc3nc2Cl)CC1 [compound 23, 3,6-Dichloro-2-(4-methylpiperazin-1-yl)quinoxaline] |  | 
20 | 1 | 5.75 | CCOc1nc2ccccc2nc1N1CCN(C)CC1 [compound 29, 29] |  | 
21 | 87.1 | 170 | CN1CCN(c2nc3ccccc3nc2Oc2ccccc2)CC1 [compound 31, 31] |  | 
22 | 537 | 195 | CN1CCN(c2nc3ccccc3nc2OC2CCCCC2)CC1 [compound 30, 30] |  | 
23 | 129 | 75.9 | CN1CCN(c2nc3ccccc3nc2OCc2ccccc2)CC1 [compound 32, 32] |  | 
